What all share (format): in vivo
The test system of one data set is Heliothis armigera. Put plainly: Insecticidal activity, artificial feed surface coating method. The protocol: (§1) The insecticidal activity of sulfonyl functional compounds in the above embodiments were tested for agricultural biological functions, and the targets of insecticidal activity were Heliothis armigera, Plutella xylostella and Aphiscraccivora.
(§2) Using Heliothis armigera and Plutella xylostella as target, the insecticidal activities of sulfonyl functional compounds were tested by conventional artificial feed surface coating method. 300 microliters of artificial feed and 20 microliters of test solution were added to each well of the 24-well cell culture plate. The test solution was used in different concentrations and repeated twice (Rep1 and Rep2). The concentrations of the test solution were 500 mg/L, 250 mg/L and 125 mg/L, respectively.
(§3) The insecticidal activity of sulfonyl functional compounds against Aphiscraccivora was tested by the method of dipping. Mother liquors were prepared by the sulfonyl functional compounds provided in the above embodiments dissolved in ethanol, respectively. 500 mg/L, 250 mg/L or 125 mg/L test solution could be prepared by diluting the different mother liquors with a liquor that contained 0.1 mL/L of emulgator (Tween-80). Every test solution was tested twice (Rep1 and Rep2). A blank control was set up, and the activity results were compared with the blank control. The mortality rate of 0˜30%, 30˜50%, 50-70%, 70˜90%, or 90˜100% could be orderly set as 0, 3, 5, 7, or 9.

Another data set has as its system Plutella xylostella. The data set is described as above. The protocol: as §1, §2, §3
A further data set has as its system Aphiscraccivora. Put plainly: Insecticidal activity, dipping method. The method, then:
as §1, §3

Consider `CC(=O)N1N=C(C)CN(N=Cc2ccc[n+](CC=CS(=O)(=O)[O-])c2)C1=O` [IV-6], for which the “Insecticidal activity (mortality rate grade) Heliothis armigera” value is 0 (mortality rate of 0˜30%) in the data set with Heliothis armigera (125 mg/L test solution), 3 (30˜50%) with Heliothis armigera (250 mg/L test solution) and 3 (30˜50%) in the data set on Heliothis armigera (500 mg/L test solution). For the same molecule, the figures for the “Insecticidal activity (mortality rate grade) Plutella xylostella” value in the data set on Plutella xylostella (125 mg/L test solution), in the data set with Plutella xylostella (250 mg/L test solution) and with Plutella xylostella (500 mg/L test solution) were 0 (mortality rate of 0˜30%), 3 (30˜50%) and 5 (50-70%), respectively. Further, the “Insecticidal activity (mortality rate grade) Aphiscraccivora” value in the data set with Aphiscraccivora (125 mg/L test solution) was 5 (50-70%); with Aphiscraccivora (250 mg/L test solution) it was 9 (90˜100%); with Aphiscraccivora (500 mg/L test solution), 9 (90˜100%).

In the case of `CCC(=O)N1N=C(C)CN(N=Cc2ccc[n+](CC=CS(=O)(=O)[O-])c2)C1=O` [IV-7], the “Insecticidal activity (mortality rate grade) Heliothis armigera” value with Heliothis armigera (125 mg/L test solution), in the data set with Heliothis armigera (250 mg/L test solution) and in the data set with Heliothis armigera (500 mg/L test solution) was 0 (mortality rate of 0˜30%) in each case. Besides, the “Insecticidal activity (mortality rate grade) Plutella xylostella” value in the data set with Plutella xylostella (125 mg/L test solution) is reported as 0 (mortality rate of 0˜30%); in the data set with Plutella xylostella (250 mg/L test solution), 0 (mortality rate of 0˜30%); in the data set with Plutella xylostella (500 mg/L test solution), 3 (30˜50%). For the same molecule, the figures for the “Insecticidal activity (mortality rate grade) Aphiscraccivora” value with Aphiscraccivora (125 mg/L test solution), in the data set on Aphiscraccivora (250 mg/L test solution) and in the data set on Aphiscraccivora (500 mg/L test solution) were 5 (50-70%), 7 (70˜90%) and 9 (90˜100%), respectively.

As to `CC(=O)N1N=C(C)CN(N=Cc2ccc[n+](CCCCS(=O)(=O)[O-])c2)C1=O` [IV-8], the “Insecticidal activity (mortality rate grade) Heliothis armigera” value in the data set with Heliothis armigera (125 mg/L test solution), with Heliothis armigera (250 mg/L test solution) and in the data set with Heliothis armigera (500 mg/L test solution) was 0 (mortality rate of 0˜30%) each time. The entries for the “Insecticidal activity (mortality rate grade) Plutella xylostella” value in the data set with Plutella xylostella (125 mg/L test solution), with Plutella xylostella (250 mg/L test solution) and in the data set on Plutella xylostella (500 mg/L test solution) were 0 (mortality rate of 0˜30%), 3 (30˜50%) and 3 (30˜50%), respectively. In addition, the “Insecticidal activity (mortality rate grade) Aphiscraccivora” value with Aphiscraccivora (125 mg/L test solution), with Aphiscraccivora (250 mg/L test solution) and in the data set with Aphiscraccivora (500 mg/L test solution) was 9 (90˜100%) each time.

For `CCC(=O)N1N=C(C)CN(N=Cc2ccc[n+](CCCCS(=O)(=O)[O-])c2)C1=O` [IV-9], the “Insecticidal activity (mortality rate grade) Heliothis armigera” value in the data set on Heliothis armigera (125 mg/L test solution), in the data set with Heliothis armigera (250 mg/L test solution) and in the data set on Heliothis armigera (500 mg/L test solution) was 0 (mortality rate of 0˜30%) in each case. The “Insecticidal activity (mortality rate grade) Plutella xylostella” value is listed as 0 (mortality rate of 0˜30%) in the data set on Plutella xylostella (125 mg/L test solution), 0 (mortality rate of 0˜30%) with Plutella xylostella (250 mg/L test solution) and 3 (30˜50%) in the data set with Plutella xylostella (500 mg/L test solution). The “Insecticidal activity (mortality rate grade) Aphiscraccivora” value is 7 (70˜90%) in the data set on Aphiscraccivora (125 mg/L test solution), 7 (70˜90%) in the data set with Aphiscraccivora (250 mg/L test solution) and 9 (90˜100%) in the data set on Aphiscraccivora (500 mg/L test solution).
